Laboratory results published in PMC6737244, “Cathelicidin Peptides Restrict Bacterial Growth via Membrane Perturbation and Induction of Reactive Oxygen Species” (mBio, 2019).
Ends that are not written are not given here.

Assays:
P. aeruginosa biofilms = test: Established biofilm in flow cell, LIVE/DEAD staining; conditions: 100 nM
E. coli UTI89 = test: Differential gene expression after peptide exposure; format: cell-based, Escherichia coli; conditions: 30 nM, 5-min exposure
Method: To determine the mechanism by which sublethal concentrations of cathelicidins affect bacterial cell physiology, we sought to analyze gene expression prior to and after a 5-min exposure to 30 nM B22a. The chromosomal integron of V. cholerae contains hundreds of repeats and horizontally acquired genes of unknown function ([20][–][23]). Moreover, many of these genes are duplicated, which can further complicate interpreting gene expression patterns. We elected to examine peptide-induced expression changes in E. coli to simplify gene identification and assignment of potential functions. Significant changes in expression were identified for genes whose products participate in global processes such as protein synthesis, protein folding, protein secretion, intracellular pH, membrane modification, c-di-GMP production, peptidoglycan biosynthesis, respiration, and detoxification of reactive oxygen species (ROS) (Table 2). Perturbation of peptidoglycan synthesis was consistent with the membrane blebbing we observed following B22 and B22a treatment. Other notable changes included arnF, the product of which modifies the lipid A moiety of lipopolysaccharide (LPS) with 4-amino-4-deoxy-L-arabinose (L-Ara4N) to confer resistance to polymyxin and cationic antimicrobial peptides in E. coli and Salmonella enterica serotype Typhimurium ([24], [25]). c-di-GMP-dependent Psl exopolysaccharide production is part of the first line of defense against reactive oxygen species in P. aeruginosa ([26]). The respiratory chain is a major source of periplasmic ROS such as superoxide (O2^−) and hydrogen peroxide (H2O2) ([27]), and cytosolic flavoenzymes such as fumarate reductase (Frd) can generate O2^−, H2O2, and hydroxyl radical (^·OH) that damages membrane lipids, DNA, and proteins. ArcA is important for regulating bacterial resistance to ROS under aerobic conditions, and OxyR directly senses H2O2 to induce expression of a slew of genes, including ahpC and gshA, to counter H2O2 accumulation ([28], [29]).

FRKKLKKLFKKLSPVIPLLKLG [B22]
Drop in biofilm biomass (P. aeruginosa biofilms; 4-h period, continuous flow): 50% | Cell death in biofilm (spike) (P. aeruginosa biofilms; after 1 h): > 50

FRKKLKKLFKKLSPVIPLLKLG-NH2 [B22a]
Log2 fold change, ahpC (UTI89_C0608) (E. coli UTI89): −1.35 | Log2 fold change, ansB (UTI89_C3346) (E. coli UTI89): −3.26 | Log2 fold change, arcA (UTI89_C5174) (E. coli UTI89): −1.55 | Log2 fold change, ardB (UTI89_C2011) (E. coli UTI89): −1.39 | Log2 fold change, arnF (yfbJ) (UTI89_C2541) (E. coli UTI89): 1.44 | Log2 fold change, arrD (UTI89_C1304) (E. coli UTI89): 2.56 | Log2 fold change, asnA (UTI89_C4299) (E. coli UTI89): −1.38 | Log2 fold change, asnS (UTI89_C1002) (E. coli UTI89): −1.19 | Log2 fold change, aspA (UTI89_C4736) (E. coli UTI89): −2.31 | Log2 fold change, ccmH (UTI89_C2472) (E. coli UTI89): −1.19 | Log2 fold change, citB (UTI89_C0624) (E. coli UTI89): −2.71 | Log2 fold change, cspA (UTI89_C4097) (E. coli UTI89): 1.44 | Log2 fold change, cspG (UTI89_C1051) (E. coli UTI89): 1.67 | Log2 fold change, cybC (UTI89_C4840) (E. coli UTI89): −2.73 | Log2 fold change, cyoD (UTI89_C0453) (E. coli UTI89): 1.80 | Log2 fold change, cysM (UTI89_C2754) (E. coli UTI89): −2.60 | Log2 fold change, dapC (UTI89_C3862) (E. coli UTI89): −1.97 | Log2 fold change, dcuA (UTI89_C4735) (E. coli UTI89): −2.63 | Log2 fold change, dgkA (UTI89_C4612) (E. coli UTI89): −1.71 | Log2 fold change, eno (UTI89_C3148) (E. coli UTI89): −2.02 | Log2 fold change, evgS (UTI89_C2702) (E. coli UTI89): 1.30 | Log2 fold change, fabA (UTI89_C1019) (E. coli UTI89): −1.48 | Log2 fold change, fdoG (UTI89_C4481) (E. coli UTI89): 1.13 | Log2 fold change, fimX (UTI89_C0338) (E. coli UTI89): 1.57 | Log2 fold change, frdA (UTI89_C4754) (E. coli UTI89): −1.78 | Log2 fold change, frdB (UTI89_C4753) (E. coli UTI89): −2.97 | Log2 fold change, fusA (UTI89_C3842) (E. coli UTI89): −1.22 | Log2 fold change, gadX (UTI89_C4048) (E. coli UTI89): 1.74 | Log2 fold change, gapA (UTI89_C1975) (E. coli UTI89): −2.34 | Log2 fold change, gmhB (UTI89_C0216) (E. coli UTI89): −2.02 | Log2 fold change, gnd (UTI89_C2302) (E. coli UTI89): −1.41 | Log2 fold change, gshA (UTI89_C3050) (E. coli UTI89): −1.92 | Log2 fold change, gsk (UTI89_C0505) (E. coli UTI89): 1.20 | Log2 fold change, holE (UTI89_C2044) (E. coli UTI89): 2.85 | Log2 fold change, hslJ (UTI89_C1622) (E. coli UTI89): −1.15 | Log2 fold change, manY (UTI89_C2016) (E. coli UTI89): −1.16 | Log2 fold change, marR (UTI89_C1833) (E. coli UTI89): 1.29 | Log2 fold change, mcbR (UTI89_C1669) (E. coli UTI89): 2.96 | Log2 fold change, mdoG (UTI89_C1172) (E. coli UTI89): 1.63 | Log2 fold change, mrcB (UTI89_C0165) (E. coli UTI89): 1.85 | Log2 fold change, mrp (UTI89_C2387) (E. coli UTI89): −1.64 | Log2 fold change, mtgA (UTI89_C3644) (E. coli UTI89): 1.90 | Log2 fold change, napC (UTI89_C2480) (E. coli UTI89): −2.52 | Log2 fold change, narP (UTI89_C2471) (E. coli UTI89): −2.02 | Log2 fold change, ompC (UTI89_C2497) (E. coli UTI89): −1.11 | Log2 fold change, ompT (UTI89_C0566) (E. coli UTI89): 1.11 | Log2 fold change, orf (UTI89_C0124) (E. coli UTI89): 1.89 | Log2 fold change, orf (UTI89_C1095) (E. coli UTI89): 1.47 | Log2 fold change, orf (UTI89_C1152) (E. coli UTI89): 1.40 | Log2 fold change, orf (UTI89_C1286) (E. coli UTI89): 1.09 | Log2 fold change, orf (UTI89_C3928) (E. coli UTI89): 1.10 | Log2 fold change, orf (UTI89_C4380) (E. coli UTI89): −1.48 | Log2 fold change, oxyR (UTI89_C4554) (E. coli UTI89): 1.11 | Log2 fold change, pflB (UTI89_C0974) (E. coli UTI89): −2.71 | Log2 fold change, ptsK (UTI89_C2748) (E. coli UTI89): −1.06 | Log2 fold change, rpmE (UTI89_C4521) (E. coli UTI89): 1.08 | Log2 fold change, rtcA (UTI89_C3920) (E. coli UTI89): −2.90 | Log2 fold change, sdaB (UTI89_C3168) (E. coli UTI89): −3.16 | Log2 fold change, sdaC (UTI89_C3167) (E. coli UTI89): −2.21 | Log2 fold change, secB (UTI89_C4151) (E. coli UTI89): −2.45 | Log2 fold change, secY (UTI89_C3746) (E. coli UTI89): −1.36 | Log2 fold change, serS (UTI89_C0908) (E. coli UTI89): −2.29 | Log2 fold change, torY (UTI89_C2077) (E. coli UTI89): 1.03 | Log2 fold change, tpiA (UTI89_C4503) (E. coli UTI89): −1.16 | Log2 fold change, uspE (UTI89_C1604) (E. coli UTI89): 1.28 | Log2 fold change, wbgM (UTI89_C2303) (E. coli UTI89): 1.29 | Log2 fold change, xdhC (UTI89_C3253) (E. coli UTI89): −2.37 | Log2 fold change, yaaY (UTI89_C0026) (E. coli UTI89): 1.32 | Log2 fold change, yacH (UTI89_C0130) (E. coli UTI89): 1.39 | Log2 fold change, yaiS (UTI89_C2239) (E. coli UTI89): 1.92 | Log2 fold change, ybcS1 (UTI89_C1303) (E. coli UTI89): 2.14 | Log2 fold change, ybfN (UTI89_C0686) (E. coli UTI89): 1.22 | Log2 fold change, ybjD (UTI89_C0880) (E. coli UTI89): 1.31 | Log2 fold change, ycaD (UTI89_C0972) (E. coli UTI89): −1.66 | Log2 fold change, yciL (UTI89_C1537) (E. coli UTI89): −1.27 | Log2 fold change, ydeH (UTI89_C1760) (E. coli UTI89): 4.38 | Log2 fold change, ydiU (UTI89_C1899) (E. coli UTI89): 1.27 | Log2 fold change, yecR (UTI89_C2105) (E. coli UTI89): −2.29 | Log2 fold change, yehE (UTI89_C2386) (E. coli UTI89): −1.09 | Log2 fold change, yfaE (UTI89_C2517) (E. coli UTI89): −2.34 | Log2 fold change, yfbR (UTI89_C2573) (E. coli UTI89): −1.89 | Log2 fold change, yfcD (UTI89_C2583) (E. coli UTI89): −1.88 | Log2 fold change, yfeK (UTI89_C2753) (E. coli UTI89): −1.41 | Log2 fold change, ygdI (UTI89_C3181) (E. coli UTI89): 1.30 | Log2 fold change, ygdI (UTI89_C3182) (E. coli UTI89): 1.31 | Log2 fold change, ygdR (UTI89_C3236) (E. coli UTI89): 1.12 | Log2 fold change, yghU (UTI89_C3411) (E. coli UTI89): −2.15 | Log2 fold change, yhbQ (UTI89_C3582) (E. coli UTI89): −1.70 | Log2 fold change, yhbW (UTI89_C3587) (E. coli UTI89): −1.14 | Log2 fold change, yhcO (UTI89_C3670) (E. coli UTI89): 1.80 | Log2 fold change, yhdL (UTI89_C3736) (E. coli UTI89): 1.09 | Log2 fold change, yjbK (UTI89_C4616) (E. coli UTI89): 1.10 | Log2 fold change, yjcC (UTI89_C4647) (E. coli UTI89): −1.25 | Log2 fold change, yjeH (UTI89_C4739) (E. coli UTI89): −1.27 | Log2 fold change, yjeI (UTI89_C4742) (E. coli UTI89): −1.76 | Log2 fold change, yjgF (ridA) (UTI89_C4848) (E. coli UTI89): 2.24 | Log2 fold change, ykgH (UTI89_C0333) (E. coli UTI89): −2.93 | Log2 fold change, ymdC (UTI89_C1169) (E. coli UTI89): 1.04 | Log2 fold change, ymgA (UTI89_C1348) (E. coli UTI89): 1.77 | Log2 fold change, ynfJ (UTI89_C1779) (E. coli UTI89): −1.82 | Log2 fold change, ynhG (UTI89_C1870) (E. coli UTI89): 1.34 | Log2 fold change, yqgD (UTI89_C3330) (E. coli UTI89): 1.11 | Log2 fold change, yrdA (UTI89_C3724) (E. coli UTI89): 1.02 | Log2 fold change, yrdE (UTI89_C3686) (E. coli UTI89): −2.10
